In test [1] the target is Gelatinase E (GelE) (Enterococcus faecalis (strain ATCC 700802 / V583), UniProt Q833V7). The test is described as follows: Gelatinase E activity assay (FRET peptide substrate). It is filed as biochemical. The conditions noted are these: for IC50: Table 11. The procedure: Gelatinase E (Gel E) was purified from bacterial culture supernatant from E. faecalis. E. faecalis was cultured aerobically in Todd Hewitt Broth overnight at 37° C. Nucleic acid was precipitated with 0.9% protamine solution, followed by protein precipitation with ammonium sulfate. Resuspended protein pellet was further subjected to purification using FPLC (phenyl Sepharose column). Fractions with gelatinase activity as determined by casein agar assay were pooled and further concentrated.
Chain of Gelatinase E (GelE) (Q833V7 193-510 limits assumed): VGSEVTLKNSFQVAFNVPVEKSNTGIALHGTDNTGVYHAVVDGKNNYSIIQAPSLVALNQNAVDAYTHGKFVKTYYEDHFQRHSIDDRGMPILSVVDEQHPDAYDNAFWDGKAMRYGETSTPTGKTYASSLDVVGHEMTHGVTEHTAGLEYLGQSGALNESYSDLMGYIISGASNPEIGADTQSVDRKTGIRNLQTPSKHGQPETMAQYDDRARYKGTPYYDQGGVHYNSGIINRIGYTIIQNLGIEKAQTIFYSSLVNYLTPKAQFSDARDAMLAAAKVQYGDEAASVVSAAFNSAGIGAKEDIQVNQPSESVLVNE
Different concentrations of test compound were incubated with purified GelE and FRET-based peptide substrate (390 MMP FRET Substrate 1; Anaspec AS-27077) in assay buffer at room temperature for 30 minutes. The fluorescence signal was determined by a plate reader.

The target of test [2] is collagenase H (ColH) (Hathewaya histolytica, UniProt Q46085). The test is described as follows: biochemical. On the set-up: species or system Clostridium histolyticum.
Chain of collagenase H (ColH) (Q46085 41-1021 limits assumed): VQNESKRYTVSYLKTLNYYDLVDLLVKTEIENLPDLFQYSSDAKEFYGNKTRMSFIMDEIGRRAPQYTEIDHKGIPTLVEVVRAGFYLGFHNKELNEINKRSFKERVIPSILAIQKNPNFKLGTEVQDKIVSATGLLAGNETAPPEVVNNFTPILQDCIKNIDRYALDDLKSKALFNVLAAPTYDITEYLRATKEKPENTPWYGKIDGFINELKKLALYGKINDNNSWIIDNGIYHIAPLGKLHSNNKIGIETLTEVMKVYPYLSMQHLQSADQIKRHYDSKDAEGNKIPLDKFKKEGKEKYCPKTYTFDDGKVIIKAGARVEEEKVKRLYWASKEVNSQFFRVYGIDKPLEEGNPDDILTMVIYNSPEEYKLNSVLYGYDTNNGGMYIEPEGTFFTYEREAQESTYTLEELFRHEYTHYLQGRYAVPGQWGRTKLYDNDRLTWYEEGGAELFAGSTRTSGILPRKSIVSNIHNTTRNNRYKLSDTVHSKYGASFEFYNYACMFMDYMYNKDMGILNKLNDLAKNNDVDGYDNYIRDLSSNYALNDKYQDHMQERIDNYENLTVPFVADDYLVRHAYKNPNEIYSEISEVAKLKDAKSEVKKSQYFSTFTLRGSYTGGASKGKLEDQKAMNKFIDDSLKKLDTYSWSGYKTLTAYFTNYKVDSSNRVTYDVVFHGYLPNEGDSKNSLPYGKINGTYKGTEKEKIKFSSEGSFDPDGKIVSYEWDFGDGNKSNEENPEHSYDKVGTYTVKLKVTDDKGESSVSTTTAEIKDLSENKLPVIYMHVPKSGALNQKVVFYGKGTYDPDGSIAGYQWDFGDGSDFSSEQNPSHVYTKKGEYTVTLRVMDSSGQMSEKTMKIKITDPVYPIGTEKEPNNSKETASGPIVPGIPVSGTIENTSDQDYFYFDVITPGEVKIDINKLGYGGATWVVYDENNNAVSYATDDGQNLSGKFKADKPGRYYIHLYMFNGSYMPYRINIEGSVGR
Test [3] relates to recombinant BFT (rBFT). Put plainly: NFF-3 cleavage assay. It is filed as biochemical, B. fragilis. The method, then:
A NFF-3 cleavage assay was used to test activity of recombinant BFT, before or after addition of various inhibitors. The NFF-3 cleavage assay was previously described by Goulas et al., PNAS, 2011, 108(5) 1856-1861, which is incorporated by reference herein in its entirety.
Initially, recombinant BFT (rBFT) (0.25, 0.5, 1, 2, 4, 8, or 16 μg/mL) was incubated at 37° C. with the fluorogenic substrate NFF-3 (Cayman Chemical) at a concentration of 2.5 μM, 5 μM, or 10 μM. After 18 hours, fluorescence was measured in a microplate fluorimeter.
Next, rBFT was pre-incubated with one or more test compounds at different concentrations for 30 minutes at 37° C. The rBFT-compound mixture was then added to NFF-3 and incubated for 24 hours at 37° C. Fluorescence was then measured in a microplate fluorimeter.

In test [4] the test system is BFT. Put plainly: E-cadherin release assay (BFT-induced E-cadherin release from HT29 cells). It is filed as cell-based, B. fragilis. The method, then:
Test compounds were also screened for their ability to inhibit BFT-induced E-cadherin release from HT29 cells.
Different concentrations of test compounds were pre-incubated with rBFT for one hour at 37° C. The rBFT-compound mixture was then added to HT29 cells and incubated at 37° C. for 18 hours. Following incubation, cell supernatants were harvested and E-cadherin was quantified in the supernatants by ELISA (FIG. 2).

Setting [5] is: rBFT pre-incubated with compound 30 minutes at 37° C., then NFF-3 for 24 hours, read-out: NFF3 IC50.
[6] abbreviates: 18 hours, E-cadherin in supernatant by ELISA, read-out: HT29 Cell IC50.

Each structure is given as a SMILES string. Read-outs that look alike come from different tables or passages of the source.

For the molecule `COc1ccc(S(=O)(=O)N(CC(=O)NO)CC(C)C)cn1` [L], the IC50 in test [1] is 336 nM; in test [2] (read-out: ColH IC50), above 100000 nM.
Consider `O=C(NO)[C@@H](Cc1ccccc1)N(Cc1cccnc1)S(=O)(=O)c1ccc(O)cc1` [Example 5], for which the concentration for half-maximal inhibition (IC50) is 240 nM in test [3] (setting [5]) and 4910 nM in test [4] (setting [6]).
As for `CNC(=O)COc1ccc(S(=O)(=O)N(CC(=O)NO)CC(C)C)cc1` [K], the IC50 in test [1] was 512 nM; in test [2], above 100000 nM.
Turning to `COCCOc1ccc(S(=O)(=O)N(CC(=O)NO)CC(C)C)cc1` [G], the half-inhibitory concentration (IC50) is 443 nM in test [1] and above 100000 nM in test [2] (read-out: ColH IC50).
For the molecule `COc1ccc(S(=O)(=O)N(CC(=O)NO)CC(F)F)cc1` [P], the values for the 50% inhibitory concentration (IC50) in test [1] and in test [2] (read-out: ColH IC50) were 9090 nM and above 100000 nM, respectively.
For `CC(C)CN(CC(=O)NO)S(=O)(=O)c1ccc(OCc2ccc(F)cc2)cc1` [F], the values for the IC50 in test [1] and in test [2] (read-out: ColH IC50) were 649 nM and above 100000 nM, respectively.
For the molecule `CC(C)C[C@H](C(=O)NO)N(Cc1cscn1)S(=O)(=O)c1ccc(O)cc1` [Example 30], the IC50 in test [4] (setting [6]) is 970 nM.
`CCCOc1ccc(S(=O)(=O)N(CC(=O)NO)CC(C)C)cc1` [D]: the 50% inhibitory concentration (IC50) is 489 nM in test [1] and above 100000 nM in test [2] (read-out: ColH IC50).
As for `COc1ccc(S(=O)(=O)N(CC(=O)NO)CC(C)C)cc1` [A], the “GelE inhibition” value in test [1] (FIG. 7) was “high levels of GelE inhibition”. Further, the IC50 was determined as 202 nM in test [1] and 612 nM in test [2] (read-out: ColH IC50). Moreover, the “ColH inhibition” value in test [2] was “high levels of ColH inhibition”.
Turning to `O=C(NO)[C@@H](Cc1c[nH]c2ccccc12)N(Cc1cccnc1)S(=O)(=O)c1ccc(O)cc1` [Example 6], the IC50 in test [3] (setting [5]) worked out at 150 nM; in test [4] (setting [6]), 1620 nM.
Molecule `CCC[C@H](C(=O)NO)N(Cc1ccc2[nH]ccc2c1)S(=O)(=O)c1ccc(O)cc1` [Example 63] came in with a 50% inhibitory concentration (IC50) in test [2] of 8890 nM.
As for `CC(C)C[C@H](C(=O)NO)N(Cc1cccnc1)S(=O)(=O)c1ccc(O)cc1` [Example 1, (R)—N-hydroxy-2-((4-hydroxy-N-(pyridin-3-ylmethyl)phenyl)sulfonamido)-4-methylpentanamide], the IC50 was below 150 nM in test [3] (setting [5]) and 1520 nM in test [4] (setting [6]).
For `O=C(NO)[C@@H](Cc1ccc(C(F)(F)F)cc1)N(Cc1cccnc1)S(=O)(=O)c1ccc(O)cc1` [Example 20], in that order: 860 nM and 7320 nM.
Turning to `CC(C)C[C@H](C(=O)NO)N(Cc1ccncc1)S(=O)(=O)c1ccc(O)cc1` [Example 28], the half-inhibitory concentration (IC50) in test [4] (setting [6]) came to 198 nM.
In the case of `COc1ccc(S(=O)(=O)N(CC(=O)O)Cc2cccnc2)cc1` [I], the 50% inhibitory concentration (IC50) in test [1] and in test [2] (read-out: ColH IC50) was above 100000 nM each time.
In the case of `CSCC[C@H](C(=O)NO)N(Cc1cccnc1)S(=O)(=O)c1ccc(O)cc1` [Example 3], the half-maximal inhibitory concentration (IC50) in test [3] (setting [5]) is 240 nM; in test [4] (setting [6]), 3840 nM.
For the molecule `O=C(NO)[C@@H](Cc1ccc(O)cc1)N(Cc1cccnc1)S(=O)(=O)c1ccc(O)cc1` [Example 4], the results for the concentration for half-maximal inhibition (IC50) in test [3] (setting [5]) and in test [4] (setting [6]) were 2040 nM and 6330 nM, respectively.
`Cc1ccc(CNC(=O)COc2ccc(S(=O)(=O)N(CC(=O)NO)CC(C)C)cc2)cc1` [AD] gave an IC50 in test [1] of 155 nM.
On to `CC(C)CN(CC(=O)NO)S(=O)(=O)c1ccc(OCC(=O)NCc2cc(F)cc(F)c2)cc1` [AO], for which the IC50 in test [1] was above 10000 nM.
Consider `CSc1ccc(S(=O)(=O)N(CC(=O)NO)CC(C)C)cc1` [M], for which the results for the IC50 in test [1] and in test [2] (read-out: ColH IC50) were 257 nM and above 100000 nM, respectively.
With `O=C(CN(Cc1cccnc1)S(=O)(=O)c1ccc(O)cc1)NO` [Example 24], the IC50 in test [3] (setting [5]) worked out at 1100 nM; in test [4] (setting [6]) it was 19100 nM.
In the case of `C[C@H](O)[C@H](C(=O)NO)N(Cc1cccnc1)S(=O)(=O)c1ccc(O)cc1` [Example 2], the IC50 in test [3] (setting [5]) was above 1000 nM; in test [4] (setting [6]), 6720 nM.
`COc1ccc(CNC(=O)COc2ccc(S(=O)(=O)N(CC(=O)NO)CC(C)C)cc2)cc1` [AE] returned an IC50 in test [1] of 156 nM.
As to `CC(C)C[C@H](C(=O)NO)N(Cc1cnco1)S(=O)(=O)c1ccc(O)cc1` [Example 32], the figures for the half-maximal inhibitory concentration (IC50) in test [3] (setting [5]) and in test [4] (setting [6]) were 510 nM and 5170 nM, respectively.
`CC(C)CN(CC(=O)NO)S(=O)(=O)c1ccc(OCC(=O)NCc2ccccn2)cc1` [AP] returned an IC50 in test [1] of 177 nM.
`CC(C)C[C@H](C(=O)NO)N(Cc1ccc2[nH]ccc2c1)S(=O)(=O)c1ccc(O)cc1` [Example 33]: the figures for the IC50 in test [3] (setting [5]), in test [4] (setting [6]) and in test [2] were 140 nM, 1740 nM and 384 nM, respectively.
As for `COc1cccc(S(=O)(=O)N(Cc2cccnc2)[C@H](CC(C)C)C(=O)NO)c1` [Example 31], the 50% inhibitory concentration (IC50) was 20100 nM in test [3] (setting [5]) and above 50000 nM in test [4] (setting [6]).
Molecule `CC(C)CN(CC(=O)NO)S(=O)(=O)c1ccc(Oc2ccccc2)cc1` [AA] gave an IC50 in test [1] of 1690 nM.
As for `COc1ccc(S(=O)(=O)N(Cc2cccnc2)[C@H](Cc2ccccc2)C(=O)NO)cc1` [Example 19], the half-inhibitory concentration (IC50) in test [3] (setting [5]) stood at 1240 nM; in test [4] (setting [6]), 8260 nM.
For the molecule `CC(C)CN(CC(=O)NO)S(=O)(=O)c1ccc(OCC(=O)NCc2ccc(Cl)cc2)cc1` [AI], the half-inhibitory concentration (IC50) in test [1] is 164 nM.
Turning to `O=C(NO)C(c1ccc(F)cc1)N(Cc1cccnc1)S(=O)(=O)c1ccc(O)cc1` (stereo not shown) [Example 23], the figures for the IC50 in test [3] (setting [5]) and in test [4] (setting [6]) were 300 nM and above 50000 nM, respectively.
Consider `CC(C)CN(CC(=O)NO)S(=O)(=O)c1ccc(OCCCF)cc1` [AB], for which the IC50 in test [1] turned out to be 2400 nM.
The same measure, in the same setting: the same measure for `CC(C)CN(CC(=O)NO)S(=O)(=O)c1ccc(OCC(=O)NCc2ccccc2)cc1` [B]: 130 nM.
Same read-out and setting: the same measure for `COCCN(CC(=O)NO)S(=O)(=O)c1ccc(OC)cc1` [Y]: 6760 nM.
Regarding `O=C(NO)C(c1ccccc1)N(Cc1cccnc1)S(=O)(=O)c1ccc(O)cc1` (stereo not shown) [Example 22], the IC50 was found to be 660 nM in test [3] (setting [5]) and 17300 nM in test [4] (setting [6]).
Take `CCOc1ccc(S(=O)(=O)N(CC(=O)NO)CC(C)C)cc1` [C]: the IC50 in test [1] was 372 nM; in test [2] (read-out: ColH IC50) it was above 100000 nM.
Molecule `CC(C)CN(CC(=O)NO)S(=O)(=O)c1ccc(OCC(=O)NC(C)c2ccccc2)cc1` (stereo not shown) [AR] registered a 50% inhibitory concentration (IC50) in test [1] of 237 nM.
Take `CC(C)[C@H](C(=O)NO)N(Cc1cccnc1)S(=O)(=O)c1ccc(O)cc1` [OH-CGS-27023A, 2(R)-[4-hydroxy-N-(3-pyridylmethyl)phenylsulfonamido]-3-methylbutyrohydroxamic acid, reference compound]: the concentration for half-maximal inhibition (IC50) was determined as 366 nM in test [3] (Table 9, FIG. 5B, read-out: IC50, inhibition of BFT-induced NFF-3 release) and 1990 nM in test [4] (FIG. 4, read-out: IC50, inhibition of BFT (E-cadherin release)).
`CC(C)CN(CC(=O)NO)S(=O)(=O)c1ccc(OC(C)C)cc1` [E]: the half-inhibitory concentration (IC50) is 1210 nM in test [1] and above 100000 nM in test [2] (read-out: ColH IC50).
In turn, `CC(C)CN(CC(=O)NO)S(=O)(=O)c1ccc(OCC(=O)NCc2cccc(F)c2)cc1` [AN] displayed a 50% inhibitory concentration (IC50) in test [1] of 158 nM.
Take `COc1ccc(S(=O)(=O)N(Cc2cccnc2)[C@H](Cc2ccc(C(F)(F)F)cc2)C(=O)NO)cc1` [Example 21]: the values for the IC50 in test [3] (setting [5]) and in test [4] (setting [6]) were 2750 nM and above 16000 nM, respectively.
As for `CC(C)CN(CC(=O)NO)S(=O)(=O)c1ccc(OCC(=O)NCc2ccc(C(F)(F)F)cc2)cc1` [AH], it took 238 nM to reach half-maximal inhibition in test [1] (IC50).
In the case of `CC(C)C[C@H](C(=O)NO)N(Cc1cccnc1)S(=O)(=O)c1cccc(O)c1` [Example 27], the results for the concentration for half-maximal inhibition (IC50) in test [3] (setting [5]) and in test [4] (setting [6]) were 5950 nM and above 50000 nM, respectively.
For `CC[C@H](C(=O)NO)N(Cc1cccnc1)S(=O)(=O)c1ccc(O)cc1` [Example 25], in that order: 90 nM and 780 nM.
As to `CC(C)CN(CC(=O)NO)S(=O)(=O)c1ccc(OCCF)cc1` [Z], in test [1], the IC50 stood at 246 nM.
The same measure, in the same setting: the same measure for `CC(C)CN(CC(=O)NO)S(=O)(=O)c1ccc(OCC(=O)NCc2ccsc2)cc1` [AC]: 139 nM; for `Cc1ccccc1CNC(=O)COc1ccc(S(=O)(=O)N(CC(=O)NO)CC(C)C)cc1` [AL]: 218 nM.
As to `CC(C)C[C@H](C(=O)NO)N(Cc1ccc(F)cc1)S(=O)(=O)c1ccc(O)cc1` [Example 26], the figures for the IC50 in test [4] (setting [6]) and in test [2] were 1280 nM and 19300 nM, respectively.
In test [1], `CC(C)CN(CC(=O)NO)S(=O)(=O)c1ccc(OCC(=O)NCc2cccc(Cl)c2)cc1` [AG, N-(3-chlorobenzyl)-2-(4-(N-(2-(hydroxyamino)-2-oxoethyl)-N-isobutylsulfamoyl)phenoxy)acetamide] had an IC50 of 103 nM.

In general, IC50 refers to the point on the concentration scale where inhibition reaches its midpoint.

Source of the values: patent publication US20230357139A1, “SMALL MOLECULE INHIBITORS OF BACTERIAL TOXINS” (Artizan Biosciences, Inc., priority 2020, published 2023).
